Legend:
[1] = target: T1, 5-hydroxytryptamine receptor 1A (Homo sapiens, UniProt P08908); assay: Binding affinity towards human 5-hydroxytryptamine 1A receptor was determined using [3H]8-OH-DPAT-as radioligand
T1 sequence (P08908 whole entry): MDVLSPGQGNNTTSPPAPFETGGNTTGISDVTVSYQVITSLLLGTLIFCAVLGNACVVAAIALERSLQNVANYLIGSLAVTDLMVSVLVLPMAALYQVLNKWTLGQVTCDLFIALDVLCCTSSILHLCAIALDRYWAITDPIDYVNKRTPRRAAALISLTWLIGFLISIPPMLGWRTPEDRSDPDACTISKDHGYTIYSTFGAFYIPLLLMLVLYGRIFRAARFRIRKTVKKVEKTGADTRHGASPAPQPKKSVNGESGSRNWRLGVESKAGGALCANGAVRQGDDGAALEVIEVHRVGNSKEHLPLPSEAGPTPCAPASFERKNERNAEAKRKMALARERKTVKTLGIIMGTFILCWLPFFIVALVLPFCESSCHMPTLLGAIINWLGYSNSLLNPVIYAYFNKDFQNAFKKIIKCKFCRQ

Rattus norvegicus [2] = assay: Percentage of animals tested that selected the training compound appropriate level at 0.5 umol/kg in DOI-trained rats; assay type: functional
Rattus norvegicus [3] = assay: Percentage of animals failed to emit 50 responses within 5 min at 0.125 umol/kg in DOI-trained rats; assay type: functional
Rattus norvegicus [4] = assay: Percentage of animals tested that selected the training compound appropriate level at 0.25 umol/kg in DOI-trained rats; assay type: functional
Rattus norvegicus [5] = assay: Percentage of animals tested that selected the training compound appropriate level at 0.125 umol/kg in DOI-trained rats; assay type: functional
Rattus norvegicus [6] = assay: Percentage of animals failed to emit 50 responses within 5 min at 0.5 umol/kg in LY-293284-trained rats; assay type: functional
Rattus norvegicus [7] = assay: Percentage of animals failed to emit 50 responses within 5 min at 0.125 umol/kg in LY-293284-trained rats; assay type: functional
[8] = target: 5-hydroxytryptamine receptor 2A (Rattus norvegicus, UniProt P14842); assay: Binding affinity towards rat 5-hydroxytryptamine 2A receptor was determined using [125I]- DOI as radioligand
Rattus norvegicus [9] = assay: Percentage of animals failed to emit 50 responses within 5 min at 0.25 umol/kg in LY-293284-trained rats; assay type: functional
Rattus norvegicus [10] = assay: Percentage of animals tested that selected the training compound appropriate level at 1 umol/kg in LY-293284-trained rats; assay type: functional
Rattus norvegicus [11] = assay: Percentage of animals tested that selected the training compound appropriate level at 0.063 umol/kg in LY-293284-trained rats; assay type: functional
Rattus norvegicus [12] = assay: Percentage of animals tested that selected the training compound appropriate level at 1 umol/kg in LSD-trained rats; assay type: functional
[13] = target: T2, 5-hydroxytryptamine receptor 2C (Rattus norvegicus, UniProt P08909); assay: Binding affinity towards rat 5-hydroxytryptamine 2C receptor was determined using [125I]- DOI as radioligand
T2 sequence (P08909 whole entry): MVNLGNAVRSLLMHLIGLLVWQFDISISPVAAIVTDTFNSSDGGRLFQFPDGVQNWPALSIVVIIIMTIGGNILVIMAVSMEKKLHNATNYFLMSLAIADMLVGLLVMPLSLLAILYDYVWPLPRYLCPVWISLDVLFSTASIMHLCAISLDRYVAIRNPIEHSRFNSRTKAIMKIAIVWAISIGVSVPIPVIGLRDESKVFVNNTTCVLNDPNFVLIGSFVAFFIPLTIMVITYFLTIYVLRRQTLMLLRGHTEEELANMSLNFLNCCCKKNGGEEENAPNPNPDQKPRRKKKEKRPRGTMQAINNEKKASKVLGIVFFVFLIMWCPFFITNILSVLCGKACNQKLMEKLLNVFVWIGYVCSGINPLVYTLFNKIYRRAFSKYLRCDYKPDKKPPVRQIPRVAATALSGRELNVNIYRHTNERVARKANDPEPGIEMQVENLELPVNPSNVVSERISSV

Rattus norvegicus [14] = assay: Percentage of animals failed to emit 50 responses within 5 min at 0.25 umol/kg in DOI-trained rats; assay type: functional
Rattus norvegicus [15] = assay: Percentage of animals tested that selected the training compound appropriate level at 0.25 umol/kg in LSD-trained rats; assay type: functional
Rattus norvegicus [16] = assay: Percentage of animals failed to emit 50 responses within 5 min at 0.25 umol/kg in LSD-trained rats; assay type: functional
Rattus norvegicus [17] = assay: Percentage of animals failed to emit 50 responses within 5 min at 0.5 umol/kg in LSD-trained rats; assay type: functional
Rattus norvegicus [18] = assay: Percentage of animals tested that selected the training compound appropriate level at 0.5 umol/kg in LY-293284-trained rats; assay type: functional
Rattus norvegicus [19] = assay: Percentage of animals failed to emit 50 responses within 5 min at 1 umol/kg in LSD-trained rats; assay type: functional
Rattus norvegicus [20] = assay: Percentage of animals failed to emit 50 responses within 5 min at 0.5 umol/kg in DOI-trained rats; assay type: functional
Rattus norvegicus [21] = assay: Percentage of animals tested that selected the training compound appropriate level at 0.5 umol/kg in LSD-trained rats; assay type: functional
Rattus norvegicus [22] = assay: Percentage of animals tested that selected the training compound appropriate level at 0.25 umol/kg in LY-293284-trained rats; assay type: functional
Rattus norvegicus [23] = assay: Percentage of animals tested that selected the training compound appropriate level at 0.125 umol/kg in LY-293284-trained rats; assay type: functional
Rattus norvegicus [24] = assay: Percentage of animals tested that selected the training compound appropriate level at 0.125 umol/kg in LSD-trained rats; assay type: functional
Rattus norvegicus [25] = assay: Percentage of animals failed to emit 50 responses within 5 min at 0.063 umol/kg in LY-293284-trained rats; assay type: functional
Rattus norvegicus [26] = assay: Percentage of animals failed to emit 50 responses within 5 min at 1 umol/kg in LY-293284-trained rats; assay type: functional
Rattus norvegicus [27] = assay: Percentage of animals failed to emit 50 responses within 5 min at 0.125 umol/kg in LSD-trained rats; assay type: functional
Rattus norvegicus [28] = species on record: Rattus norvegicus; assay: Effective concentration required to determined hallucinogen-like activity in LSD-trained rats; assay type: functional

Chain of 5-hydroxytryptamine receptor 2A (P14842 whole entry): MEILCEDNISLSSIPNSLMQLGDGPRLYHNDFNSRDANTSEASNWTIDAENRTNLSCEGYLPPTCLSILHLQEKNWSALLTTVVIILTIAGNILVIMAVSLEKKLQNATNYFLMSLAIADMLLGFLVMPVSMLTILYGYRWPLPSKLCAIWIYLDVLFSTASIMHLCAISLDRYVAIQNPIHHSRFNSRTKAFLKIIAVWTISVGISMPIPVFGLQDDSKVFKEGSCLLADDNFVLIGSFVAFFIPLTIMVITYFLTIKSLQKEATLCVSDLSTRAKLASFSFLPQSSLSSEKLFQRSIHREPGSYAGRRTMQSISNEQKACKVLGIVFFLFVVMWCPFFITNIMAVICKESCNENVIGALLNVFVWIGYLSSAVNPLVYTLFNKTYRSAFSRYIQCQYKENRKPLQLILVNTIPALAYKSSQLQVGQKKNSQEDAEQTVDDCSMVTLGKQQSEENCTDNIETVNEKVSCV

Question: Which Ki [1] does the source give for `COc1ccc2[nH]cc(CCN(C)C)c2c1F` here?
Answer: 0.23 nM

Question: With `COc1ccc2[nH]cc(CCN3CCCC3)c2c1F` as the compound, how does the SDL (Rattus norvegicus [2]) read?
Answer: 50%

Question: And the D (Rattus norvegicus [3])?
Answer: 22%

Question: What about the SDL (Rattus norvegicus [4]) of the same compound?
Answer: 29%

Question: What about the SDL (Rattus norvegicus [5]) of the same compound?
Answer: 0%

Question: And the D (Rattus norvegicus [6])?
Answer: 66.6%

Question: And the D (Rattus norvegicus [7])?
Answer: 10%

Question: What about the Ki [8] of the same compound?
Answer: 130 nM

Question: What about the D (Rattus norvegicus [9]) of the same compound?
Answer: 12.5%

Question: And the SDL (Rattus norvegicus [10])?
Answer: 100%

Question: What about the SDL (Rattus norvegicus [11]) of the same compound?
Answer: 25%

Question: And the SDL (Rattus norvegicus [12])?
Answer: 67%

Question: What about the Ki [13] of the same compound?
Answer: 140 nM

Question: What about the D (Rattus norvegicus [14]) of the same compound?
Answer: 30%

Question: And the SDL (Rattus norvegicus [15])?
Answer: 57%

Question: What about the D (Rattus norvegicus [16]) of the same compound?
Answer: 53%

Question: What about the D (Rattus norvegicus [17]) of the same compound?
Answer: 60%

Question: And the SDL (Rattus norvegicus [18])?
Answer: 100%

Question: And the D (Rattus norvegicus [19])?
Answer: 78%

Question: And the D (Rattus norvegicus [20])?
Answer: 50%

Question: What about the SDL (Rattus norvegicus [21]) of the same compound?
Answer: 75%

Question: And the SDL (Rattus norvegicus [22])?
Answer: 100%

Question: What about the SDL (Rattus norvegicus [23]) of the same compound?
Answer: 66.6%

Question: And the SDL (Rattus norvegicus [24])?
Answer: 11%

Question: And the Ki [1]?
Answer: 0.12 nM

Question: What about the D (Rattus norvegicus [25]) of the same compound?
Answer: 0%

Question: And the D (Rattus norvegicus [26])?
Answer: 90%

Question: And the D (Rattus norvegicus [27])?
Answer: 10%

Question: With `COc1cc(CC(C)N)c(OC)cc1I` (stereo unspecified) as the compound, how does the ED50 (Rattus norvegicus [28]) read?
Answer: 0.29 µmol/kg

Question: With `CCCN(CCC)C1CCc2cccc(O)c2C1` (stereo unspecified) [8-OH-DPAT] as the compound, how does the ED50 (Rattus norvegicus [28]) read?
Answer: 0.099 µmol/kg

Question: `CCN(CC)C(=O)[C@@H]1C=C2c3cccc4[nH]cc(c34)C[C@H]2N(C)C1` [LYSERGIDE] was tested. Which ED50 (Rattus norvegicus [28]) did it give?
Answer: 0.026 µmol/kg
